# Measured values as given in patent US8232308B2, “Methods for treating a disease in which Rho kinase is involved” (UBE Industries, Ltd., priority 2003, dated 2012).
# What was measured:
# activated ROCK II = biological target: T1, activated ROCK II (Rattus norvegicus, UniProt Q62868); assay: Test for Evaluation of Inhibiting Activity to Rho Kinase; assay type: biochemical; conditions: S6 Kinase Substrate Peptide, [γ-32P]ATP, 30° C. for 15 minutes, Ki=IC50/(1+S/Km)
# T1 construct: purchased Upstate Biotechnology 14-338
# T1 sequence (Q62868 11-550 limits assumed): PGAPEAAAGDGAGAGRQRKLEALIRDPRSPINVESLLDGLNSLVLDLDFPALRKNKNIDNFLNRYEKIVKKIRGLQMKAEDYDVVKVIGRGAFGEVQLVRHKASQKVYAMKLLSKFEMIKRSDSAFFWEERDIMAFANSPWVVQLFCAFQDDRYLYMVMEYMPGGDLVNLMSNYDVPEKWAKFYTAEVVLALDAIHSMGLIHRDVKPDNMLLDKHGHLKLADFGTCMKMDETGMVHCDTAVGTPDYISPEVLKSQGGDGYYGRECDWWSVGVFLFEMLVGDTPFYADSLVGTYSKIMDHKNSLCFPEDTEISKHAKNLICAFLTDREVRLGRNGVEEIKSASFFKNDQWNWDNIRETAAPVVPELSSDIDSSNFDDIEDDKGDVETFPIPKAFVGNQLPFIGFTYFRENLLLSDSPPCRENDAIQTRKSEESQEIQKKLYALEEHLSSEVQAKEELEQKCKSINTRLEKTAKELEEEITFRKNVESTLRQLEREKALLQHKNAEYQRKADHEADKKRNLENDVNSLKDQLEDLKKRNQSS
Ki (activated ROCK II) [nM],Structure (SMILES),melting point
146,"CC(C)(N)c1ccc(-c2ccc3[nH]ncc3c2OCC2CC2)nc1.Cl.Cl.Cl [Compound 5-73, 5-[5-(1-Amino-1-methylethyl)pyridin-2-yl]-4-cyclo-propylmethyloxy-1H-indazole trihydrochloride]",270 to 272 °C (dec.)
–,"CC(C)(C)OC(=O)NC(C)(C)c1ccc(-c2ccc3nn(C4CCCCO4)cc3c2-c2cc[nH]n2)cc1 (stereo not drawn) [Compound 30, 5-[4-(1-tert-butoxycarbonylamino-1-methylethyl)phenyl]-4-(pyrazol-3-yl)-2-(tetrahydropyran-2-yl)-2H-indazole]",99 to 105 °C
